Measured values published in paper PMC9273884, “Responsive Fluorescent Coumarin–Cinnamic Acid Conjugates for α-Glucosidase Detection” (Frontiers in Chemistry, 2022).
“Also recorded” adds a separate entry of the source.

Assays:
[1] = pH-dependent emission (pKa by Henderson-Hasselbalch equation); format: physicochemical; conditions: from emission spectra in PBS buffer pH 3.0 to 8.0, room temperature
Procedure: The emission spectra of the probes in PBS buffer (pH from 3.0 to 8.0) were determined at room temperature. The pKa value was calculated using the Henderson–Hosslbalch equation ([Finikova et al., 2003]): pH = pKa + lg ([A]/[HA]).

α-glucosidase [2] = target: T1, α-glucosidase (Saccharomyces cerevisiae, UniProt P53341); experiment: Fluorescence competitive binding assay against α-glucosidase/LD02 complex
T1 construct: purchased Sigma-Aldrich
Procedure: (§1) All chemicals and solvents were obtained from commercial suppliers without further purification. α-Glucosidase from Saccharomyces cerevisiae (EC 3.2.1.20) was purchased from Sigma-Aldrich. p-Nitrophenyl-α-D-[…] (PNPG) was obtained from Abcam. Nuclear magnetic resonance (NMR) spectra of new compounds were recorded in DMSO-d 6 using a Bruker Advance 500 MHz spectrometer. High-resolution mass spectrometry (HRMS) was measured on a Thermo Fisher Scientific Q Exactive Orbitrap mass spectrometer. UV–Vis absorption spectra were measured using an Hitachi 3,900 absorption spectrophotometer (Tokyo, Japan). Fluorescence spectra were recorded using an Edinburgh FLS1000 fluorescence spectrophotometer (Edinburgh, UK).
The binding complexes of α-glucosidase with LD02 were prepared by adding α-glucosidase (final concentration = 3.5 μM) to the solution of LD02 (10 μM) in 10 mM PBS buffer (pH = 7.4). The dissociation constant of a competitor to α-glucosidase can be determined by titrating it against binding complexes of α-glucosidase with LD02, and can be calculated according to the Cheng–Prusoff equation ([Cheng and Prusoff, 1973]).

α-glucosidase [3] = target: T1, α-glucosidase; experiment: Fluorescence titration of the probes with α-glucosidase; format: binding; conditions: for increase of maximum emission intensity on addition of α-glucosidase: 3.5 μM α-glucosidase, PBS buffer
Procedure: as §1
α-Glucosidase protein was titrated to the solution of the testing probe (LD01 or LD02) (10 μM), and the fluorescence emission spectra were recorded from 380 to 700 nm under excitation of 365 nm. The binding constants of Ka were obtained from a double logarithm regression curve ([Wei et al., 2010]): 1g[(I−Io)/Io] = 1gKa + n 1g[G],
where I and I0 are the current and initial fluorescence intensity, respectively, K a is the binding constant, n is the number of binding sites for each α-glucosidase, and [G] is the total concentration of the α-glucosidase protein.

[4] = target: T2, α-Glucosidase from Saccharomyces cerevisiae (EC 3.2.1.20) (Saccharomyces cerevisiae, UniProt P53341); experiment: α-Glucosidase inhibition efficiency test (PNPG substrate, absorbance at 405 nm); format: biochemical; conditions: 0.1 U/mL enzyme, 1 mmol/L PNPG, 37°C, triplicate mean; read-out: IC50 against α-glucosidase
T2 construct: purchased Sigma-Aldrich
Procedure: All chemicals and solvents were obtained from commercial suppliers without further purification. α-Glucosidase from Saccharomyces cerevisiae (EC 3.2.1.20) was purchased from Sigma-Aldrich. p-Nitrophenyl-α-D-galactopyranoside (PNPG) was obtained from Abcam.
Stock solutions of testing compounds were prepared in DMSO. Enzyme solution of α-glucosidase (2 U/mL) was prepared in 0.1 M PBS buffer. Nitrophenol-α-D-glucoside (PNPG) was dissolved in 0.1 M PBS buffer (pH 6.8) to obtain the substrate solution (4 mM). In total, 10 μL of α-glucosidase (final concentration 0.1 U/mL), 130 μL of PBS buffer, and 10 μL of the sample solution were added into 96-well plates in succession and incubated at 37°C for 10 min. Then 50 μL of substrate solution (PNPG final concentration 1 mmol/L) was added, followed by incubation at 37°C for another 30 min. The enzymatic activity was quantified by measuring the absorbance of the reaction mixture at 405 nm using a multimodel reader. The inhibition rate was calculated using the following equation: Inhibition rate (%) = [(A1−A0)/A0] × 100%, where A1 and A0 are the absorbance values of testing samples and blank control, respectively. The IC50 value was obtained from a plot of the inhibition rate versus the sample concentration curve. The assays were carried out in triplicate and the mean values were given.

[5] = tested on: glucose oxidase (GOD), polyphenol oxidase (TKY), pepsin (PEP), Cys, GSH, Lys, Ca2+, Cu2+, Fe3+, Mg2+, Zn2+; experiment: Binding selectivity of LD02: emission in the presence of potential competitors; conditions: 10 μM LD02; enzymes 3.5 μM, small molecules and ions 1 mM; 10 mM PBS pH 7.4
Procedure: To verify the binding specificity of LD02 toward α-glucosidase, emission spectra of LD02 in the presence of α-glucosidase or various potential competitors such as other enzymes (including glucose oxidase (GOD), polyphenol oxidase (TKY), and pepsin (PEP)), and small molecules of interest (including Cys, GSH, Lys, Ca^2+, Cu^2+, Fe^3+, Mg^2+, and Zn^2+), were collected in 10 mM PBS buffer (pH = 7.4) at room temperature.
FIGURE 5 (A) Fluorescence spectra of LD02 (10 μM) in the presence of various species: α-glucosidase (α-Glu) (3.5 μM), GOD (3.5 μM), TKY (3.5 μM), PEP (3.5 μM), Cys (1 mM), GSH (1 mM), Lys (1 mM), Ca^2+ (1 mM), Cu^2+ (1 mM), Fe^3+ (1 mM), Mg^2+ (1 mM), and Zn^2+ (1 mM) in PBS buffer. (B) The plot of (I-I0)/I0 in A (λex = 365 nm, λem = 457 nm).

T1 sequence (P53341 whole entry): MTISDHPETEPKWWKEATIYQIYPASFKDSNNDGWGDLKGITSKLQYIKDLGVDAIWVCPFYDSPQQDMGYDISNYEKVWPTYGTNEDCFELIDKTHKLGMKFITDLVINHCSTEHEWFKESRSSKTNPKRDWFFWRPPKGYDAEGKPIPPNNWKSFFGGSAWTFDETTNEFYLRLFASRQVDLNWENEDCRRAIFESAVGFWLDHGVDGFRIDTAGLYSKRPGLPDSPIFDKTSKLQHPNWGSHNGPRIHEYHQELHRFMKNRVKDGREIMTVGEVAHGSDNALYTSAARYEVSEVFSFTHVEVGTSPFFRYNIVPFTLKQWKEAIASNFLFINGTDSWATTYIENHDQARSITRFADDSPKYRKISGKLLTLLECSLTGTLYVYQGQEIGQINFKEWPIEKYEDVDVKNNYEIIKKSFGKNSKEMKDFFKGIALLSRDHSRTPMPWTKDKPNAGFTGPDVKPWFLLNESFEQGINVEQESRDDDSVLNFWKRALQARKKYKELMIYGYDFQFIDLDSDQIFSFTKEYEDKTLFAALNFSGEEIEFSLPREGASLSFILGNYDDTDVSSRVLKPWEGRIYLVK
T2 sequence (P53341 whole entry): as above

In the case of `CCN(CC)c1ccc2cc(/C(C)=N/OC(=O)/C=C/c3ccc(Br)cc3)c(=O)oc2c1` [LD01], the pKa [1] is reported as 4.2, the Kd (α-glucosidase [2]) is reported as 6.31 µM and the “increase of maximum emission intensity on addition of α-glucosidase” value (α-glucosidase [3]; 10 μM probe) is reported as “no obvious emission changes; also recorded: does not have such changes”. The IC50 [4] was 4.6 ± 0.5 µM.

For `C/C(=N\OC(=O)/C=C/c1ccc(N(C)C)cc1)c1cc2ccccc2oc1=O` [LD02], the pKa [1] was 4.6, the Kd (α-glucosidase [3]) was 158 µM and the “increase of maximum emission intensity on addition of α-glucosidase” value (α-glucosidase [3]; 10 μM probe) was 2.7 times. The “binding ratio (n, number of binding sites) to α-glucosidase” value (α-glucosidase [3]; double logarithm regression, 10 μM probe, PBS) was “approximately 0.5”, the IC50 [4] was 32.5 ± 0.8 µM and the “effect of potential competitors on emission band and intensity (selectivity toward α-glucosidase)” value [5] was “no obvious effect”.
